In patent publication US20240041042A1, “1-(PYRIDYL)-5-AZINYLPYRAZOLE DERIVATIVES, AND THEIR USE FOR CONTROL OF UNDESIRED PLANT GROWTH” (Bayer Aktiengesellschaft, priority 2020, published 2024):
Read-outs that look alike come from different tables or passages of the source.

Columns and labels:
Format in all cases: in vivo
[1] = tested on: Polygonum convolvulus (POLCO); assay: Pre-emergence herbicidal action against POLCO; settings: dosage 320 g/ha
Outline: (§1)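 Pre-emergence soil-surface spray of compound, formulated as wettable powder or emulsion concentrate, in aqueous suspension or emulsion with 0.5% additive (600 l/ha; rate 320 g/ha or less). Activity rated visually after roughly 3 weeks in the greenhouse as a percentage of untreated controls, 0% meaning no difference.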

Viola tricolor (VIOTR) [2] = assay: Post-emergence herbicidal action against VIOTR
Outline: (§2)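 Greenhouse plants sprayed at the one-leaf stage, 2–3 weeks after sowing, with WP or EC formulations plus 0.5% additive at 600 l/ha water. Activity rated visually after about 3 weeks versus untreated controls (100% = dead, 0% = like control), at 320 g/ha or lower.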

Viola tricolor (VIOTR) [3] = assay: Pre-emergence herbicidal action against VIOTR
Outline: as §1

[4] = tested on: Echinochloa crus-galli (ECHCG); assay: Pre-emergence herbicidal action against ECHCG
Outline: as §1

[5] = tested on: Pharbitis purpurea (PHBPU); assay: Post-emergence herbicidal action against PHBPU
Outline: as §2

Zea mays (ZEAMX) [6] = settings: for Post-emergence action against ZEAMX in %: crop plant compatibility, 80 g/ha, effect vs untreated controls; for Post-emergence action against ZEAMX in % (crop plant compatibility): 20 g/ha, effect in comparison to untreated controls
Outline: (§3)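 Visual rating (% effect vs. untreated plants; 100% = plant death) made about 3 weeks after treatment. Plants had been sprayed at one-leaf stage, 2–3 weeks post-sowing, with aqueous WP/EC preparations containing 0.5% additive, 600 l/ha water volume; a, b, c mark dose levels.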

Oryza sativa (ORYSA) [7] = settings: crop plant compatibility
Outline: as §3

Lolium rigidum (LOLRI) [8] = assay: Pre-emergence herbicidal action against LOLRI
Outline: as §1

[9] = tested on: Matricaria inodora (MATIN); assay: Post-emergence herbicidal action against MATIN
Outline: as §2

[10] = tested on: Abutilon theophrasti (ABUTH); assay: Post-emergence herbicidal action against ABUTH; settings: visual rating about 3 weeks after treatment vs untreated controls (100% = plants have died, 0% = like control plants)
Outline: as §2

[11] = tested on: Amaranthus retroflexus (AMARE); assay: Pre-emergence herbicidal action against AMARE; settings: visual scoring after about 3 weeks vs untreated controls
Outline: as §1

[12] = tested on: Polygonum convolvulus (POLCO); assay: Post-emergence herbicidal action against POLCO; settings: dosage 320 g/ha
Outline: as §2

Avena fatua (AVEFA) [13] = assay: Post-emergence herbicidal action against AVEFA; settings: visual rating about 3 weeks after treatment
Outline: as §2

Avena fatua (AVEFA) [14] = assay: Pre-emergence herbicidal action against AVEFA; settings: 320 g/ha, visual scoring after about 3 weeks vs untreated controls
Outline: as §1

[15] = tested on: Alopecurus myosuroides (ALOMY); assay: Pre-emergence herbicidal action against ALOMY; settings: scored visually after about 3 weeks, 100% = plants have died
Outline: as §1

[16] = tested on: Amaranthus retroflexus (AMARE); assay: Post-emergence herbicidal action against AMARE
Outline: as §2

[17] = tested on: Alopecurus myosuroides (ALOMY); assay: Post-emergence herbicidal action against ALOMY; settings: visual rating about 3 weeks after treatment vs untreated controls (100% = plants have died, 0% = like control plants)
Outline: as §2

[18] = tested on: Verconica persica (VERPE); assay: Post-emergence herbicidal action against VERPE
Outline: as §2

[19] = tested on: Echinochloa crus-galli (ECHCG); assay: Post-emergence herbicidal action against ECHCG
Outline: as §2

Oryza sativa (ORYSA) [20] = settings: pre-emergence, 80 g/ha, crop plant compatibility, in comparison to untreated controls
Outline: (§4)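 Scoring: visual, % of untreated control, about 3 weeks after a pre-emergence application to the soil surface. Application used WP or EC formulations diluted in water with 0.5% additive at 600 l/ha; dosage levels are marked by suffixes a, b and c.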

[21] = tested on: Verconica persica (VERPE); assay: Pre-emergence herbicidal action against VERPE
Outline: as §1

Setaria viridis (SETVI) [22] = assay: Pre-emergence herbicidal action against SETVI
Outline: as §1

[23] = tested on: Pharbitis purpurea (PHBPU); assay: Pre-emergence herbicidal action against PHBPU; settings: dosage 320 g/ha
Outline: as §1

[24] = tested on: Matricaria inodora (MATIN); assay: Pre-emergence herbicidal action against MATIN
Outline: as §1

Lolium rigidum (LOLRI) [25] = assay: Post-emergence herbicidal action against LOLRI
Outline: as §2

Setaria viridis (SETVI) [26] = assay: Post-emergence herbicidal action against SETVI; settings: dosage 80 g/ha
Outline: as §2

Zea mays (ZEAMX) [27] = settings: pre-emergence, 80 g/ha, crop plant compatibility, in comparison to untreated controls
Outline: as §4

[28] = 80 g/ha, effect in comparison to untreated controls
[29] = 20 g/ha, effect vs untreated controls

COC(=O)COc1nn(-c2nc(F)ccc2F)c(-c2ccc(F)nc2)c1Br [Example I-369]
90%: Pre-emergence action against POLCO in % [1] | Post-emergence action against PHBPU in % ([5]; dosage 320 g/ha) | Pre-emergence action against LOLRI in % (Lolium rigidum (LOLRI) [8]; dosage 320 g/ha) | Pre-emergence action against AMARE in % ([11]; 80 g/ha) | Pre-emergence action against AMARE in % ([11]; 320 g/ha) | Pre-emergence action against VERPE in % ([21]; dosage 80 g/ha) | Pre-emergence action against VERPE in % ([21]; dosage 320 g/ha) | Pre-emergence action against SETVI in % (Setaria viridis (SETVI) [22]; dosage 320 g/ha) | Pre-emergence action against PHBPU in % [23] | Pre-emergence action against MATIN in % ([24]; dosage 320 g/ha) | Post-emergence action against LOLRI in % (Lolium rigidum (LOLRI) [25]; dosage 320 g/ha)
10%: Post-emergence action against ZEAMX in % (Zea mays (ZEAMX) [6])
20%: Post-emergence action against ORYSA in % (Oryza sativa (ORYSA) [7]; [28]) | Pre-emergence action against ORYSA in % (Oryza sativa (ORYSA) [20])
80%: Post-emergence action against VIOTR in % (Viola tricolor (VIOTR) [2]; 80 g/ha) | Post-emergence action against VIOTR in % (Viola tricolor (VIOTR) [2]; 320 g/ha) | Pre-emergence action against VIOTR in % (Viola tricolor (VIOTR) [3]; dosage 80 g/ha) | Post-emergence action against PHBPU in % ([5]; dosage 80 g/ha) | Post-emergence action against MATIN in % ([9]; dosage 320 g/ha) | Post-emergence action against ABUTH in % ([10]; 320 g/ha) | Post-emergence action against POLCO in % [12] | Post-emergence action against AVEFA in % (Avena fatua (AVEFA) [13]; 320 g/ha) | Pre-emergence action against AVEFA in % (Avena fatua (AVEFA) [14]) | Pre-emergence action against ALOMY ([15]; 80 g/ha) | Post-emergence action against AMARE in % ([16]; 320 g/ha, visual rating about 3 weeks after treatment) | Post-emergence action against ALOMY in % ([17]; 80 g/ha) | Post-emergence action against VERPE in % ([18]; 320 g/ha, VERPE) | Post-emergence action against VERPE in % ([18]; dosage 80 g/ha) | Post-emergence action against ECHCG in % ([19]; dosage 80 g/ha) | Post-emergence action against ECHCG in % ([19]; dosage 320 g/ha) | Pre-emergence action against MATIN in % ([24]; dosage 80 g/ha) | Post-emergence action against LOLRI in % (Lolium rigidum (LOLRI) [25]; dosage 80 g/ha)
100%: Pre-emergence action against VIOTR in % (Viola tricolor (VIOTR) [3]; 320 g/ha, Viola tricolor) | Pre-emergence action against ECHCG in % ([4]; dosage 320 g/ha) | Pre-emergence action against ALOMY ([15]; 320 g/ha) | Post-emergence action against ALOMY in % ([17]; 320 g/ha)

COCCOC(=O)[C@@H](C)Oc1nn(-c2ncccc2F)c(-c2ccc(F)nc2)c1Br [Example I-35]
10%: Post-emergence action against ZEAMX in % (crop plant compatibility) (Zea mays (ZEAMX) [6]) | Post-emergence action against ZEAMX in % (Zea mays (ZEAMX) [6])
20%: Pre-emergence action against ORYSA in % (Oryza sativa (ORYSA) [20])
90%: Pre-emergence action against POLCO in % [1] | Post-emergence action against VIOTR in % (Viola tricolor (VIOTR) [2]; 80 g/ha) | Pre-emergence action against ECHCG in % ([4]; dosage 80 g/ha) | Pre-emergence action against LOLRI in % (Lolium rigidum (LOLRI) [8]; dosage 80 g/ha) | Post-emergence action against MATIN in % ([9]; dosage 80 g/ha) | Post-emergence action against ABUTH in % ([10]; 80 g/ha) | Pre-emergence action against ALOMY ([15]; 80 g/ha) | Post-emergence action against ALOMY in % ([17]; 80 g/ha) | Post-emergence action against ECHCG in % ([19]; dosage 80 g/ha) | Pre-emergence action against PHBPU in % [23] | Post-emergence action against LOLRI in % (Lolium rigidum (LOLRI) [25]; dosage 80 g/ha)
0%: Post-emergence action against ORYSA in % (Oryza sativa (ORYSA) [7]; [29]) | Post-emergence action against ORYSA in % (Oryza sativa (ORYSA) [7]; [28])
100%: Pre-emergence action against VIOTR in % (Viola tricolor (VIOTR) [3]; 320 g/ha, Viola tricolor) | Pre-emergence action against VIOTR in % (Viola tricolor (VIOTR) [3]; dosage 80 g/ha) | Pre-emergence action against ECHCG in % ([4]; dosage 320 g/ha) | Post-emergence action against SETVI in % (Setaria viridis (SETVI) [26]) | Pre-emergence action against LOLRI in % (Lolium rigidum (LOLRI) [8]; dosage 320 g/ha) | Pre-emergence action against AMARE in % ([11]; 80 g/ha) | Pre-emergence action against AMARE in % ([11]; 320 g/ha) | Post-emergence action against AVEFA in % (Avena fatua (AVEFA) [13]; 80 g/ha) | Pre-emergence action against AVEFA in % (Avena fatua (AVEFA) [14]) | Pre-emergence action against ALOMY ([15]; 320 g/ha) | Post-emergence action against AMARE in % ([16]; 80 g/ha, visual rating about 3 weeks after treatment vs untreated controls (100% = plants have died, 0% = like control plants)) | Post-emergence action against VERPE in % ([18]; dosage 80 g/ha) | Pre-emergence action against VERPE in % ([21]; dosage 320 g/ha) | Pre-emergence action against SETVI in % (Setaria viridis (SETVI) [22]; dosage 80 g/ha) | Pre-emergence action against SETVI in % (Setaria viridis (SETVI) [22]; dosage 320 g/ha) | Pre-emergence action against MATIN in % ([24]; dosage 320 g/ha)

CCOC(=O)COc1nn(-c2ncccc2Cl)c(-c2ccc(F)nc2)c1Br [Example I-23]
100%: Pre-emergence action against VIOTR in % (Viola tricolor (VIOTR) [3]; 320 g/ha, Viola tricolor) | Pre-emergence action against ECHCG in % ([4]; dosage 320 g/ha) | Pre-emergence action against LOLRI in % (Lolium rigidum (LOLRI) [8]; dosage 320 g/ha) | Pre-emergence action against AMARE in % ([11]; 320 g/ha) | Pre-emergence action against ALOMY ([15]; 320 g/ha) | Pre-emergence action against SETVI in % (Setaria viridis (SETVI) [22]; dosage 320 g/ha)
80%: Post-emergence action against VERPE in % ([18]; dosage 80 g/ha) | Post-emergence action against ECHCG in % ([19]; dosage 80 g/ha)
10%: Post-emergence action against ZEAMX in % (Zea mays (ZEAMX) [6]) | Post-emergence action against ORYSA in % (Oryza sativa (ORYSA) [7]; [28]) | Pre-emergence action against ZEAMX in % (Zea mays (ZEAMX) [27]) | Pre-emergence action against ORYSA in % (Oryza sativa (ORYSA) [20])
90%: Pre-emergence action against POLCO in % [1] | Pre-emergence action against VIOTR in % (Viola tricolor (VIOTR) [3]; dosage 80 g/ha) | Pre-emergence action against AMARE in % ([11]; 80 g/ha) | Post-emergence action against AVEFA in % (Avena fatua (AVEFA) [13]; 80 g/ha) | Pre-emergence action against AVEFA in % (Avena fatua (AVEFA) [14]) | Post-emergence action against ALOMY in % ([17]; 80 g/ha) | Pre-emergence action against VERPE in % ([21]; dosage 320 g/ha) | Pre-emergence action against PHBPU in % [23] | Pre-emergence action against MATIN in % ([24]; dosage 320 g/ha)
0%: Post-emergence action against ZEAMX in % (crop plant compatibility) (Zea mays (ZEAMX) [6]) | Post-emergence action against ORYSA in % (Oryza sativa (ORYSA) [7]; [29])
